Measured values as given in US11292801B2, “Calpain modulators and therapeutic uses thereof” (Blade Therapeutics, Inc., priority 2016, dated 2022).

Legend:
[1] = target: T1, Human Calpain 2/NS1 (Homo sapiens, UniProt P17655); test: Biochemical inhibition of calpain 2, continuous fluorescence (FRET substrate) assay; details: mean, read-out: Human Calpain 2/NS1 IC50 (nM)_MEAN
T1 sequence (P17655 1-700): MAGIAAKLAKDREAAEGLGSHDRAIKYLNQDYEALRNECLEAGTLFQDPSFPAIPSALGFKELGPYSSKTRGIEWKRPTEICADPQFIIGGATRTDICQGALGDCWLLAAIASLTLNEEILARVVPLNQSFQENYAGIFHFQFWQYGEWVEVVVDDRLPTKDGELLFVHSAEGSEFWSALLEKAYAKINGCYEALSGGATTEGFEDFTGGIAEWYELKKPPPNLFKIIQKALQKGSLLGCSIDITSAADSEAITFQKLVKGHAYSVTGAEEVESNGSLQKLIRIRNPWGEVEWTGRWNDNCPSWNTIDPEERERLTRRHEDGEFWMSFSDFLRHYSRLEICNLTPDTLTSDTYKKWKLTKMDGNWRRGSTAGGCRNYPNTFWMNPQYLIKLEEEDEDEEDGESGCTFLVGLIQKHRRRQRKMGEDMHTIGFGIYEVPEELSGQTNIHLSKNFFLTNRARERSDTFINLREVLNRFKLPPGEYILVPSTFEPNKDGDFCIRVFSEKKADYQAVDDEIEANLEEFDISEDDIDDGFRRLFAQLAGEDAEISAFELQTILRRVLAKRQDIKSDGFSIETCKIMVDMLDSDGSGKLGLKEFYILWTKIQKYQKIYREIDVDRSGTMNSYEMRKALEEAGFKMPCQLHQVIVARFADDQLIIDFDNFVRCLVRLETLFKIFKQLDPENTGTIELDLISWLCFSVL
T1 sequence (P04632 1-268 partner): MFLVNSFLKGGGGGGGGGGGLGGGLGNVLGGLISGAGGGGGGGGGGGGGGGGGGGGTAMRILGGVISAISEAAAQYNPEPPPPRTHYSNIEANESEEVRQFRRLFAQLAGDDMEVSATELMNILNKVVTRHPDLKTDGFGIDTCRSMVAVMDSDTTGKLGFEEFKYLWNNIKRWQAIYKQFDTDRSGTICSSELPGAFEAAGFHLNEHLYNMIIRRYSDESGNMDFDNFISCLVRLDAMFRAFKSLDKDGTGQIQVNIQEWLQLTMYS
Experimental: (§1) Calpain 1, 2, and 9 activity and inhibition thereof are assessed by means of a continuous fluorescence assay. The SensoLyte 520 Calpain substrate (Anaspec Inc) is optimized for detecting calpain activity. This substrate contains a novel internally quenched 5-FAM/QXL™ 520 FRET pair. Calpains 1, 2, and 9 cleave the FRET substrate into two separate fragments resulting in an increase of 5-FAM fluorescence that is proportional to calpain activity.
(§2) Assays are typically setup in black 384-well plates using automated liquid handling as follows. Calpain assay base buffer typically contains 50 mM Tris, pH˜7.5, 100 mM NaCl and 1 mM DTT. Inhibitors are serially diluted in DMSO and used to setup 2× mixtures with calpains in the aforementioned buffer. After incubation at ambient temperature (25C), the reaction is initiated by adding a 2× mix of the fluorescent peptide substrate and CaCl2) (required for in-situ calpain activation) in the same buffer. Reaction progress curve data are typically collected for 10 min using excitation/emission wavelengths of 490 nm/520 nm on SpectraMax i3× or the FLIPR-Tetra plate readers (Molecular Devices Inc). Reaction rates were calculated from progress curve slopes typically over 1-5 min. Dose response curves (rate vs. log inhibitor concentration) were typically fit to a 4-parameter logistic function to extract IC50 values.

[2] = target: T2, Human Calpain 9/NS1 (Homo sapiens, UniProt O14815); test: Biochemical inhibition of calpain 9, continuous fluorescence (FRET substrate) assay; details: mean, read-out: Human Calpain 9/NS1 IC50 (nM)_MEAN
T2 sequence (O14815 1-690): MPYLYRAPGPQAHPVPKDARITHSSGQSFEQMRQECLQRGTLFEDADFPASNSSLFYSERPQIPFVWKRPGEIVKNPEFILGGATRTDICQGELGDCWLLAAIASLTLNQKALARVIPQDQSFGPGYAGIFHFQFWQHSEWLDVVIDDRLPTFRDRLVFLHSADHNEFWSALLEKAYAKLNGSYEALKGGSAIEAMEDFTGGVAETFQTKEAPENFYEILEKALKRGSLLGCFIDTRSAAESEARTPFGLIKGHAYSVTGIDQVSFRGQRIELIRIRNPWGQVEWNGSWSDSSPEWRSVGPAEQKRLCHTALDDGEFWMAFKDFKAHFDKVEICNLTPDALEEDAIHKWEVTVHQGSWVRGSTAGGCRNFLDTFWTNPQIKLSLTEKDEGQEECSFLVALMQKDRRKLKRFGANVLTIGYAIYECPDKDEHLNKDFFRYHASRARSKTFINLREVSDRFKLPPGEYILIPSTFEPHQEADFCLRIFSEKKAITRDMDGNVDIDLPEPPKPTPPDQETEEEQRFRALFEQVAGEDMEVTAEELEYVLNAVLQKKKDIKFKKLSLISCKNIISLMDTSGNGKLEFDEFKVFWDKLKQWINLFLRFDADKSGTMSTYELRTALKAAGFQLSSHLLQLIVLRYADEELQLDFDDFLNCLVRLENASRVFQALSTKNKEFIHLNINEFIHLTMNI
T2 sequence (P04632 1-268 partner): T1 sequence (P04632 1-268 partner)
Experimental: as §1, §2

[3] = target: T3, Human Calpain 1/NS1 (Homo sapiens, UniProt P07384); test: Biochemical inhibition of calpain 1, continuous fluorescence (FRET substrate) assay; details: mean, read-out: Human Calpain 1/NS1 IC50 (nM)_MEAN
T3 sequence (P07384 1-714): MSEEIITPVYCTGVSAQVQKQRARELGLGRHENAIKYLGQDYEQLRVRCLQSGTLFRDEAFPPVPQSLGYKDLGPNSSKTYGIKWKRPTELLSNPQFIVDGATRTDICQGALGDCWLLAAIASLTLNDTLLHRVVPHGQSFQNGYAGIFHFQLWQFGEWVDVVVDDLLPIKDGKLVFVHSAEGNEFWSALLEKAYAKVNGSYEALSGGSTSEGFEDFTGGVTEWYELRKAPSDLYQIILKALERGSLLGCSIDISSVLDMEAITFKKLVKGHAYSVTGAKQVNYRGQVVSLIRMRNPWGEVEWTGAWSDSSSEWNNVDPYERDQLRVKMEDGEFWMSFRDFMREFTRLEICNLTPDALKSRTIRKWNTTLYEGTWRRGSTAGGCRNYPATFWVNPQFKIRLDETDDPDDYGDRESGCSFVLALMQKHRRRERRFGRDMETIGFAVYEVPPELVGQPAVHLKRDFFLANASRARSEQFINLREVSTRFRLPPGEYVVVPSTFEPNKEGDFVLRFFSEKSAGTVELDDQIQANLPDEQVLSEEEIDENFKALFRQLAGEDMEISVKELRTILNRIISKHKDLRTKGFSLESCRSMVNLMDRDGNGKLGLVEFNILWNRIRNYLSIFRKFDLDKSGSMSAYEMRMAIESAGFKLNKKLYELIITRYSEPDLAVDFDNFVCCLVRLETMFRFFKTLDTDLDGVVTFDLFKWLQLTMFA
T3 sequence (P04632 1-268 partner): T1 sequence (P04632 1-268 partner)
Experimental: as §1, §2

SMILES	IC50 [1] [nM]	IC50 [2] [nM]	IC50 [3] [nM]
O=C[C@@H]1CC=CCCCCCc2ccccc2C(=O)N1 [Compound 14, (S)-1-Oxo-2,3,4,7,8,9,10,11-octahydro-1h-benzo[c][1]aza-cyclotridecine-3-carbaldehyde]	< 3000	< 3000	3000 to 10000
CC(C)NC(=O)C(=O)[C@@H]1C/C=C/COCCOCc2ccccc2C(=O)N1 [Compound 62, (S,E)-N-isopropyl-2-oxo-2-(12-oxo-1,3,4,6,9,10,11,12-octahydrobenzo[f][1,4]dioxa[9]azacyclotetradecin-10-yl)acetamide]	> 10000	> 10000	> 10000
O=C[C@@H]1CCCCCCCCc2cccnc2C(=O)N1 [Compound 49, (S)-15-Oxo-6,7,8,9,10,11,12,13,14,15-decahydro-5h-pyrido[2,3-c][1]aza-cyclotridecine-13-carbaldehyde]	3000 to 10000	< 3000	> 10000
O=C[C@@H]1CCCCCOc2cccc(c2)-c2ccccc2C(=O)N1 [Compound 30, (S)-11-Oxo-3-oxa-10-aza-1(1,2),2(1,3)-dibenzenacycloundecaphane-9-carbaldehyde]	< 3000	< 3000	< 3000
O=C[C@@H]1CCCCCOc2ccc(F)c(c2)-c2ccccc2C(=O)N1 [Compound 146, (S)-2^6-fluoro-11-oxo-3-oxa-10-aza-1(1,2),2(1,3)-dibenzenacycloundecaphane-9-carbaldehyde]	< 3000	< 3000	< 3000
O=C(NC1CC1)C(=O)[C@@H]1C/C=C/COCCOCc2ccccc2C(=O)N1 [Compound 79, (S,E)-N-cyclopropyl-2-oxo-2-(12-oxo-1,3,4,6,9,10,11,12-octahydrobenzo[f][1,4]dioxa[9]azacyclotetradecin-10-yl)acetamide]	> 10000	3000 to 10000	> 10000
O=C(NCCc1ccc(Cl)cc1)C(=O)[C@@H]1C/C=C\COCCOCc2ccccc2C(=O)N1 [Compound 77, (S,Z)—N-(4-chlorophenethyl)-2-oxo-2-(12-oxo-1,3,4,6,9,10,11,12-octahydrobenzo[f][1,4]dioxa[9]azacyclotetradecin-10-yl)acetamide]	3000 to 10000	< 3000	3000 to 10000
O=C[C@@H]1CCCCOCCOCc2ccccc2C(=O)N1 [Compound 43, (S)-12-Oxo-1,3,4,6,7,8,9,10,11,12-decahydrobenzo[f][1,4]dioxa[9]aza-cyclotetradecine-10-carbaldehyde]	< 3000	< 3000	> 10000
O=C[C@@H]1C/C=C/CCCCCc2cccnc2C(=O)N1 [Compound 48, (S,E)-15-Oxo-6,7,8,9,12,13,14,15-octahydro-5h-pyrido[2,3-c][1]aza-cyclotridecine-13-carbaldehyde]	3000 to 10000	< 3000	> 10000
O=C[C@@H]1CCCCCCCCCc2ccccc2C(=O)N1 [Compound 16, (S)-1-Oxo-1,2,3,4,5,6,7,8,9,10,11,12-dodecahydrobenzo[c][1]aza-cyclotetradecine-3-carbaldehyde]	< 3000	< 3000	3000 to 10000
C#CCNC(=O)C(=O)C1CCCCOCCOCc2ccccc2C(=O)N1 (stereo not drawn) [Compound 85, 2-Oxo-2-(12-oxo-1,3,4,6,7,8,9,10,11,12-decahydrobenzo[f][1,4]dioxa[9]aza-cyclotetradecin-10-yl)-N-(prop-2-yn-1-yl)acetamide]	> 10000	3000 to 10000	> 10000
O=C(NCc1ccccc1)C(=O)[C@@H]1C/C=C\COCCOCc2ccccc2C(=O)N1 [Compound 3, (S,Z)—N-benzyl-2-oxo-2-(12-oxo-1,3,4,6,9,10,11,12-octahydrobenzo[f][1,4]dioxa[9]azacyclotetradecin-10-yl)acetamide]	> 10000	< 3000	> 10000
Cc1cccc(C)c1NC(=O)C(=O)[C@@H]1CCCCOCCOCc2ccccc2C(=O)N1 [Compound 54, (S)—N-(2,6-dimethylphenyl)-2-oxo-2-(12-oxo-1,3,4,6,7,8,9,10,11,12-decahydrobenzo[f][1,4]dioxa[9]azacyclotetradecin-10-yl)acetamide]	> 10000	> 10000	> 10000
Cc1cc(C)cc(CNC(=O)C(=O)C2CCCCOCCOCc3ccccc3C(=O)N2)c1 (stereo not drawn) [Compound 111, N-(3,5-dimethylbenzyl)-2-oxo-2-(12-oxo-1,3,4,6,7,8,9,10,11,12-decahydrobenzo[f][1,4]dioxa[9]azacyclotetradecin-10-yl)acetamide]	3000 to 10000	< 3000	> 10000
O=C(NC1CC1)C(=O)C1CCCCOCCOCc2ccccc2C(=O)N1 (stereo not drawn) [Compound 114, N-cyclopropyl-2-oxo-2-(12-oxo-1,3,4,6,7,8,9,10,11,12-decahydrobenzo[f][1,4]dioxa[9]azacyclotetradecin-10-yl)acetamide]	> 10000	> 10000	> 10000
NC(=O)C(=O)[C@@H]1C/C=C/CCOc2ccnc(n2)-c2ccccc2C(=O)N1 [Compound 137, (S,E)-2-oxo-2-(3-oxo-11-oxa-4-aza-1(2,4)-pyrimidina-2(1,2)-benzenacycloundecaphan-7-en-5-yl)acetamide]	< 3000	< 3000	< 3000
CC(C)NC(=O)C(=O)[C@@H]1CCCCOCCOCc2ccccc2C(=O)N1 [Compound 52, (S)—N-isopropyl-2-oxo-2-(12-oxo-1,3,4,6,7,8,9,10,11,12-decahydrobenzo[f][1,4]dioxa[9]azacyclotetradecin-10-yl)acetamide]	> 10000	> 10000	> 10000
